# Source: ChEMBL document CHEMBL4406853 (Eur J Med Chem, 2019)
# What was measured:
# [1] = biological target: T1, Kappa-type opioid receptor (Homo sapiens, UniProt P41145); assay: Inhibition of kappa opioid receptor (unknown origin) assessed as effect on ERK2 phosphorylation
# [2] = biological target: T1, Kappa-type opioid receptor; assay: Inhibition of kappa opioid receptor (unknown origin) by [35S]-GTPgammaS binding assay; assay type: functional
# [3] = biological target: T1, Kappa-type opioid receptor; assay: Inhibition of kappa opioid receptor (unknown origin) assessed as increase in beta arrestin 2 recruitment relative to control
# [4] = biological target: T1, Kappa-type opioid receptor; assay: Inhibition of kappa opioid receptor (unknown origin) assessed as effect on ERK2 phosphorylation relative to control
# [5] = biological target: T1, Kappa-type opioid receptor; assay: Inhibition of kappa opioid receptor (unknown origin) assessed as effect on ERK1 phosphorylation
# [6] = biological target: T1, Kappa-type opioid receptor; assay: Inhibition of kappa opioid receptor (unknown origin) assessed as increase in beta arrestin 2 recruitment
# [7] = biological target: T1, Kappa-type opioid receptor; assay: Inhibition of kappa opioid receptor (unknown origin) assessed as effect on ERK1 phosphorylation relative to control
# T1 sequence (P41145 whole entry): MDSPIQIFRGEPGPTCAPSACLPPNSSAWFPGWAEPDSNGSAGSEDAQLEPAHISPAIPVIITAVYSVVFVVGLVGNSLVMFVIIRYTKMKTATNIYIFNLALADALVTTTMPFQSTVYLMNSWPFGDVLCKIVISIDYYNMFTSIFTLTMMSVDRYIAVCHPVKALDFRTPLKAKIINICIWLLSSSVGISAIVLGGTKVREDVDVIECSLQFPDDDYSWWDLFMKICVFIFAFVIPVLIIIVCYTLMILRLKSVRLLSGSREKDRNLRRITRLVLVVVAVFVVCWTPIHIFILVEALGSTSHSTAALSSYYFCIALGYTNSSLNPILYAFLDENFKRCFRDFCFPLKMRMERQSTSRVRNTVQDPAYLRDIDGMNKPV
smiles,measurement,setting,value
Ic1ccc(CSc2nnc(-c3ccccn3)n2Cc2ccccn2)cc1,EC50,[1],107 nM
same,EC50,[2],75.5 nM
same,Emax,[3],101%
same,Emax,[4],109%
same,EC50,[5],107 nM
same,EC50,[6],10100 nM
same,Emax,[7],109%
